This note sets out measurements from patent US20220306659A1, “COMPOUND INHIBITING AND INDUCING DEGRADATION OF EGFR AND ALK” (BEIJING TIDE PHARMACEUTICAL CO., LTD., priority 2019, published 2022).

Assay [1] concerns the target Ba/F3(EGFR^Del19/T790M/C797S) cells (Homo sapiens, UniProt P00533, DEL746-750/T790M/C797S, cells depend on it). In words: Assay of activity on Ba/F3 cells (CTG, 72 h). The conditions noted are these: read-out: IC50 (nM) Ba/F3 (EGFR^Del19/T790M/C797S). It counts as cell-based. As to the method:
(§1) (2) A compound stock solution was prepared, and then diluted 3× to obtain a compound dilution. 30 nL of the compound dilution was added to a 384-well plate by Echo (Labcyte, Echo550). The cells were incubated in an incubator at 37° C. and 5% CO2 for 72 h.
(§2) The percent inhibition rate (% inhibition) was calculated by the following formula
(§3) LUMcmpd: Luminescence value of assay compound.
(§4) LUMpositive: Average LUM value of positive drug at a concentration of 10 μM.
(§5) LUMvehicle. Average LUM value of negative control group without drug treatment.
(§6) The nonlinear regression curve (dose response-variable slope) between the value of inhibition rate (%) and the logarithm of compound concentration was fitted with graphpad prism 8.0, the effect dose curve of compound was drawn, and the IC50 value was calculated.
(§7) Y=Bottom+(Top−Bottom)/(1+1^((LogIC50−X)*HillSlope))
(§8) X-axis: logarithm of compound concentration; Y axis: inhibition rate ([…]).

Assay [2] addresses Ba/F3(EGFR^L858R/T790M/C797S) cells (Homo sapiens, UniProt P00533, T790M/C797S/L858R, cells depend on it). The experiment in a line: Assay of activity on Ba/F3 cells (CTG, 72 h). The conditions noted are these: read-out: IC50 (nM) Ba/F3 (EGFR^L858R/T790M/C797S). It counts as cell-based. As to the method:
as §1, §2, §3, §4, §5, §6, §7, §8

Chain of Ba/F3(EGFR^Del19/T790M/C797S) cells (P00533 with tags, fused parts or gaps DEL746-750/T790M/C797S): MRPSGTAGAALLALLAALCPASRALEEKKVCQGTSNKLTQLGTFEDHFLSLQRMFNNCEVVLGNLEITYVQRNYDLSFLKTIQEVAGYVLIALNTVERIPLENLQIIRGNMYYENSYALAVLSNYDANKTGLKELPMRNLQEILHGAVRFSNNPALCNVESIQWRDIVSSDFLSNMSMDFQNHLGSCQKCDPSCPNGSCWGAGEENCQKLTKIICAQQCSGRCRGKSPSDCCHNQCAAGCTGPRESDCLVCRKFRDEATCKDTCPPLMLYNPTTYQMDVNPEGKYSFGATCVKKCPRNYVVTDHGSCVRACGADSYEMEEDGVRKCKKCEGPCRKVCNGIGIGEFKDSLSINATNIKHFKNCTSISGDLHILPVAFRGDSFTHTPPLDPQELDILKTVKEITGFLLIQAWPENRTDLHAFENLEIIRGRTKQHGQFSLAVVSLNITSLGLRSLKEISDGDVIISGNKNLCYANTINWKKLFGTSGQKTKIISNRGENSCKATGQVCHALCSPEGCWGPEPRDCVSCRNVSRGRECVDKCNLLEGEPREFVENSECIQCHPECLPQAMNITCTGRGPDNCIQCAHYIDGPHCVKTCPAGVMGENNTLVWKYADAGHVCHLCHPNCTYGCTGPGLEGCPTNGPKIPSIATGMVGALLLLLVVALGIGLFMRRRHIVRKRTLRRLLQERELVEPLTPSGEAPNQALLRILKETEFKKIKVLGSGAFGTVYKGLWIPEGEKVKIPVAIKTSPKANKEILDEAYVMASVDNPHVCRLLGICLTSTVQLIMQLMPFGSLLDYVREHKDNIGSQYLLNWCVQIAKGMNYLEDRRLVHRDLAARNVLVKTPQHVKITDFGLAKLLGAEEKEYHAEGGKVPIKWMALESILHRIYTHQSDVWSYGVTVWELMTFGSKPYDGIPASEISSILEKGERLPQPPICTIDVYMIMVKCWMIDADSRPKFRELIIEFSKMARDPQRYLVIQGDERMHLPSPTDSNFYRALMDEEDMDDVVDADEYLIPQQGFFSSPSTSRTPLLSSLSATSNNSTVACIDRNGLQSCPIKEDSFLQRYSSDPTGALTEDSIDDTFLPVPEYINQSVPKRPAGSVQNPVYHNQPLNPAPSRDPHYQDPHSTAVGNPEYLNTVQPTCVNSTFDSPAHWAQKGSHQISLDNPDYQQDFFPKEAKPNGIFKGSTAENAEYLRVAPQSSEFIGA
Chain of Ba/F3(EGFR^L858R/T790M/C797S) cells (P00533 whole entry T790M/C797S/L858R): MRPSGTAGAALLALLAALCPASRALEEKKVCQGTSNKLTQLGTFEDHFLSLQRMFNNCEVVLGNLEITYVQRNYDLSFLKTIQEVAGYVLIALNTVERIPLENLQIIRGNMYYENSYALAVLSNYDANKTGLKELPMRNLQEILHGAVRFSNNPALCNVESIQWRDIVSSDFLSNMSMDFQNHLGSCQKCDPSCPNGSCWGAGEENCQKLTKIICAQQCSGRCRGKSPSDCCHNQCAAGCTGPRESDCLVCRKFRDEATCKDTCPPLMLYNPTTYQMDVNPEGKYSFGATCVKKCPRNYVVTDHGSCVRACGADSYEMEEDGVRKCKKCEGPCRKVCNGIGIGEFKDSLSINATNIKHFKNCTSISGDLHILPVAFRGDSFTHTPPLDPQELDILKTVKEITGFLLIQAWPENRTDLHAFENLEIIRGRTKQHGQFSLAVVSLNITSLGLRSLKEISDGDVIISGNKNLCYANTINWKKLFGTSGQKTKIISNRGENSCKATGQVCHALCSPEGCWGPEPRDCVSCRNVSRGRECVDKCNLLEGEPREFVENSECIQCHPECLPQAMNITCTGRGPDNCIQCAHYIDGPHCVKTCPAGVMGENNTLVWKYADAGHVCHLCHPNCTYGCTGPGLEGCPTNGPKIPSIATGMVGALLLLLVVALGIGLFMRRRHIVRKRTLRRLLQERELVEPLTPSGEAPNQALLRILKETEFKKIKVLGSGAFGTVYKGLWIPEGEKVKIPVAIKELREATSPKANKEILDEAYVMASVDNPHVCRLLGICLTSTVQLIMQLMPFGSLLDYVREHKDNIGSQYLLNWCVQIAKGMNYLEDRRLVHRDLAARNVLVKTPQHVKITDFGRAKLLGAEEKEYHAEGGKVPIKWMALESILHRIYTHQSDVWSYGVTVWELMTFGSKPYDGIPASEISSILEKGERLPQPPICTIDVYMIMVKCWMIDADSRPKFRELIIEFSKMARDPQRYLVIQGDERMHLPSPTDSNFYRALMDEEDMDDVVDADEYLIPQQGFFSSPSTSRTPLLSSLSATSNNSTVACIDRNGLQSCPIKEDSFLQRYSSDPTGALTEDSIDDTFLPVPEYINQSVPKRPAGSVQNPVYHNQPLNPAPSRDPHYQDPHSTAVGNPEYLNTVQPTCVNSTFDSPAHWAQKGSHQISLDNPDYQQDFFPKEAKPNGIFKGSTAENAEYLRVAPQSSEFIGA

As for `COc1cc(N2CCC(N3CCNCC3)CC2)ccc1Nc1ncc(Cl)c(Nc2ccccc2P(C)(C)=O)n1` [Compound A1-4, (2-((5-Chloro-2-((2-methoxy-4-(4-(piperazin-1-yl)piperidin-1-yl)phenyl)amino)pyrimidin-4-yl)amino)phenyl)dimethyl phosphorus oxide], the GI50 in assay [1] and in assay [2] was greater than 300 nM throughout. On to `COc1cc(N2CCC(N3CCN(CCCCCCCOC4CN(c5cccc6c5C(=O)N(C5CCC(=O)NC5=O)C6=O)C4)CC3)CC2)ccc1Nc1ncc(Cl)c(Nc2ccccc2P(C)(C)=O)n1` (stereo not shown) [Compound C150, 4-(3-((7-(4-(1-(4-((5-chloro-4-((2-(dimethylphosphoryl)phenyl)amino)pyrimidin-2-yl)amino)-3-methoxyphenyl)piperidin-4-yl)piperazin-1-yl)heptyl)oxy)azetidin-1-yl)-2-(2,6-dioxopiperidin-3-yl)isoindoline-1,3-dione], for which the GI50 in assay [2] is greater than 300 nM.

In the case of `COc1cc(N2CCC(N3CCN(CCCCCn4cc(-c5cccc6c5CN(C5CCC(=O)NC5=O)C6=O)cn4)CC3)CC2)ccc1Nc1ncc(Cl)c(Nc2ccccc2P(C)(C)=O)n1` (stereo not shown) [Compound C162, 3-(4-(1-(5-(4-(1-(4-((5-chloro-4-((2-(dimethylphosphoryl)phenyl)amino)pyrimidin-2-yl)amino)-3-methoxyphenyl)piperidin-4-yl)piperazin-1-yl)pentyl)-1H-pyrazol-4-yl)-1-oxoisoindolin-2-yl)piperidine-2,6-dione], the GI50 in assay [1] and in assay [2] was greater than 300 nM in each case. Turning to `COc1cc(N2CCC(N3CCN(CCCCCC#Cc4c(F)ccc5c4CN(C4CCC(=O)NC4=O)C5=O)CC3)CC2)ccc1Nc1ncc(Cl)c(Nc2ccccc2P(C)(C)=O)n1` (stereo not shown) [Compound C166, 3-(4-(7-(4-(1-(4-((5-chloro-4-((2-(dimethylphosphoryl)phenyl)amino)pyrimidin-2-yl)amino)-3-methoxyphenyl)piperidin-4-yl)piperazin-1-yl)hept-1-yn-1-yl)-5-fluoro-1-oxoisoindolin-2-yl)piperidine-2,6-dione], the GI50 lay in the range of 1 to 100 nM in assay [1] and 101 to 200 nM in assay [2]. On the same counts, the results for `COc1cc(N2CCC3(CCN(CCOCC#Cc4cccc5c4CN(C4CCC(=O)NC4=O)C5=O)CC3)CC2)c(C)cc1Nc1ncc(Br)c(Nc2ccc3nccnc3c2P(C)(C)=O)n1` (stereo not shown) [Compound C174, 3-(4-(3-(2-(9-(4-((5-bromo-4-((5-(dimethylphosphoryl)quinoxalin-6-yl)amino)pyrimidin-2-yl)amino)-5-methoxy-2-methylphenyl)-3,9-diazaspiro[5.5]undecan-3-yl)ethoxy)prop-1-yn-1-yl)-1-oxoisoindolin-2-yl)piperidine-2,6-dione] are 1 to 100 nM and 1 to 100 nM. Regarding `COc1cc(N2CCC(N3CCN(CCCc4ccc(-c5ccc6c(c5)CN(C5CCC(=O)NC5=O)C6=O)cc4)CC3)CC2)ccc1Nc1ncc(Cl)c(Nc2ccccc2P(C)(C)=O)n1` (stereo not shown) [Compound C235, 3-(5-(4-(3-(4-(1-(4-((5-chloro-4-((2-(dimethylphosphoryl)phenyl)amino)pyrimidin-2-yl)amino)-3-methoxyphenyl)piperidin-4-yl)piperazin-1-yl)propyl)phenyl)-1-oxoisoindolin-2-yl)piperidine-2,6-dione], the GI50 in assay [1] and in assay [2] was 1 to 100 nM in each case. For `COc1cc(N2CCC(N3CCN(CCCCC#Cc4ccc(F)c5c4CN(C4CCC(=O)NC4=O)C5=O)CC3)CC2)ccc1Nc1ncc(Cl)c(Nc2ccccc2P(C)(C)=O)n1` (stereo not shown) [Compound C244, 3-(4-(6-(4-(1-(4-((5-chloro-4-((2-(dimethylphosphoryl)phenyl)amino)pyrimidin-2-yl)amino)-3-methoxyphenyl)piperidin-4-yl)piperazin-1-yl)hex-1-yn-1-yl)-7-fluoro-1-oxoisoindolin-2-yl)piperidine-2,6-dione], the GI50 in assay [1] and in assay [2] was 1 to 100 nM in each case.

As to `COc1cc(N2CCC(N3CCN(CCCCCOc4cccc5c4CN(C4CCC(=O)NC4=O)C5=O)CC3)CC2)c(C)cc1Nc1ncc(Br)c(Nc2ccc3nccnc3c2P(C)(C)=O)n1` (stereo not shown) [Compound C246, 3-(4-((5-(4-(1-(4-((5-bromo-4-((5-(dimethylphosphoryl)quinoxalin-6-yl)amino)pyrimidin-2-yl)amino)-5-methoxy-2-methylphenyl)piperidin-4-yl)piperazin-1-yl)pentyl)oxy)-1-oxoisoindolin-2-yl)piperidine-2,6-dione], the GI50 in assay [1] and in assay [2] was 1 to 100 nM throughout. As to `COc1cc(N2CCC(N3CCN(CCCCC#Cc4cc(C#N)cc5c4CN(C4CCC(=O)NC4=O)C5=O)CC3)CC2)ccc1Nc1ncc(Cl)c(Nc2ccccc2P(C)(C)=O)n1` (stereo not shown) [Compound C259, 7-(6-(4-(1-(4-((5-chloro-4-((2-(dimethylphosphoryl)phenyl)amino)pyrimidin-2-yl)amino)-3-methoxyphenyl)piperidin-4-yl)piperazin-1-yl)hex-1-yn-1-yl)-2-(2,6-dioxopiperidin-3-yl)-3-oxoisoindoline-5-carbonitrile], in assay [1], the GI50 is 1 to 100 nM. The same measure, in the same setting: the result for `COc1cc(N2CCC(N3CCN(CCCCCC#Cc4cc(C(F)(F)F)cc5c4CN(C4CCC(=O)NC4=O)C5=O)CC3)CC2)ccc1Nc1ncc(Cl)c(Nc2ccccc2P(C)(C)=O)n1` (stereo not shown) [Compound C267, 3-(4-(7-(4-(1-(4-((5-chloro-4-((2-(dimethylphosphoryl)phenyl)amino)pyrimidin-2-yl)amino)-3-methoxyphenyl)piperidin-4-yl)piperazin-1-yl)hept-1-yn-1-yl)-1-oxo-6-(trifluoromethyl)isoindolin-2-yl)piperidine-2,6-dione] reads 1 to 100 nM. On the same count and under the same terms, the result for `COc1cc(N2CCC(N3CCN(CCCCC#Cc4cc(C(F)(F)F)cc5c4CN(C4CCC(=O)NC4=O)C5=O)CC3)CC2)ccc1Nc1ncc(Cl)c(Nc2ccccc2P(C)(C)=O)n1` (stereo not shown) [Compound C268, 3-(4-(6-(4-(1-(4-((5-chloro-4-((2-(dimethylphosphoryl)phenyl)amino)pyrimidin-2-yl)amino)-3-methoxyphenyl)piperidin-4-yl)piperazin-1-yl)hex-1-yn-1-yl)-1-oxo-6-(trifluoromethyl)isoindolin-2-yl)piperidine-2,6-dione] reads 1 to 100 nM; that for `COc1cc(N2CCC(N3CCN(CCCC#Cc4cc(C(F)(F)F)cc5c4CN(C4CCC(=O)NC4=O)C5=O)CC3)CC2)ccc1Nc1ncc(Cl)c(Nc2ccccc2P(C)(C)=O)n1` (stereo not shown) [Compound C269, 3-(4-(5-(4-(1-(4-((5-chloro-4-((2-(dimethylphosphoryl)phenyl)amino)pyrimidin-2-yl)amino)-3-methoxyphenyl)piperidin-4-yl)piperazin-1-yl)pent-1-yn-1-yl)-1-oxo-6-(trifluoromethyl)isoindolin-2-yl)piperidine-2,6-dione], 1 to 100 nM.

Consider `COc1cc(N2CCC(N3CCN(CCCCCc4cccc5c4CN(C4CCC(=O)NC4=O)C5=O)CC3)CC2)c(C)cc1Nc1ncc(Br)c(Nc2ccc3nccnc3c2P(C)(C)=O)n1` (stereo not shown) [Compound C285, 3-(4-(5-(4-(1-(4-((5-bromo-4-((5-(dimethylphosphoryl)quinoxalin-6-yl)amino)pyrimidin-2-yl)amino)-5-methoxy-2-methylphenyl)piperidin-4-yl)piperazin-1-yl)pentyl)-1-oxoisoindolin-2-yl)piperidine-2,6-dione], for which the GI50 in assay [1] lay in the range of 1 to 100 nM. The same measure, in the same setting: next, `COc1cc(N2CCC(N3CCN(CCCCCCc4cccc5c4CN(C4CCC(=O)NC4=O)C5=O)CC3)CC2)c(C)cc1Nc1ncc(Br)c(Nc2ccc3nccnc3c2P(C)(C)=O)n1` (stereo not shown) [Compound C286, 3-(4-(6-(4-(1-(4-((5-bromo-4-((5-(dimethylphosphoryl)quinoxalin-6-yl)amino)pyrimidin-2-yl)amino)-5-methoxy-2-methylphenyl)piperidin-4-yl)piperazin-1-yl)hexyl)-1-oxoisoindolin-2-yl)piperidine-2,6-dione]: 1 to 100 nM. Regarding `COc1cc(N2CCC3(CCN(CCCCCCc4cccc5c4CN(C4CCC(=O)NC4=O)C5=O)CC3)CC2)c(C)cc1Nc1ncc(Br)c(Nc2ccc3nccnc3c2P(C)(C)=O)n1` (stereo not shown) [Compound C299, 3-(4-(6-(9-(4-((5-bromo-4-((5-(dimethylphosphoryl)quinoxalin-6-yl)amino)pyrimidin-2-yl)amino)-5-methoxy-2-methylphenyl)-3,9-diazaspiro[5.5]undecan-3-yl)hexyl)-1-oxoisoindolin-2-yl)piperidine-2,6-dione], the GI50 in assay [1] and in assay [2] was 1 to 100 nM throughout. With `COc1cc(N2CCC(N3CCN(CCCCc4cccc5c4CN(C4CCC(=O)NC4=O)C5=O)CC3)CC2)c(C)cc1Nc1ncc(Br)c(Nc2ccc3nccnc3c2P(C)(C)=O)n1` (stereo not shown) [Compound C301, 3-(4-(4-(4-(1-(4-((5-bromo-4-((5-(dimethylphosphoryl)quinoxalin-6-yl)amino)pyrimidin-2-yl)amino)-5-methoxy-2-methylphenyl)piperidin-4-yl)piperazin-1-yl)butyl)-1-oxoisoindolin-2-yl)piperidine-2,6-dione], the GI50 in assay [1] was 1 to 100 nM. On the same count and under the same terms, the result for `COc1cc(N2CCC3(CCN(CCCCc4cccc5c4CN(C4CCC(=O)NC4=O)C5=O)CC3)CC2)c(C)cc1Nc1ncc(Br)c(Nc2ccc3nccnc3c2P(C)(C)=O)n1` (stereo not shown) [Compound C302, 3-(4-(4-(9-(4-((5-bromo-4-((5-(dimethylphosphoryl)quinoxalin-6-yl)amino)pyrimidin-2-yl)amino)-5-methoxy-2-methylphenyl)-3,9-diazaspiro[5.5]undecan-3-yl)butyl)-1-oxoisoindolin-2-yl)piperidine-2,6-dione] reads 1 to 100 nM.
